In general, IC50 refers to the concentration at which inhibition is half-maximal.

SMILES strings stand for the structures. Counter-ions that a name gives are not always drawn.

For the first series, the target named is Rho-associated protein kinase 2 (Homo sapiens, UniProt O75116). The series can be described thus: Inhibition of N-terminal His10-StrepII tagged human ROCK2 catalytic domain (1 to 553 residues) expressed in Sf9 insect cells by HTRF assay.
Chain of Rho-associated protein kinase 2 (O75116 whole entry, the tested form may be a part): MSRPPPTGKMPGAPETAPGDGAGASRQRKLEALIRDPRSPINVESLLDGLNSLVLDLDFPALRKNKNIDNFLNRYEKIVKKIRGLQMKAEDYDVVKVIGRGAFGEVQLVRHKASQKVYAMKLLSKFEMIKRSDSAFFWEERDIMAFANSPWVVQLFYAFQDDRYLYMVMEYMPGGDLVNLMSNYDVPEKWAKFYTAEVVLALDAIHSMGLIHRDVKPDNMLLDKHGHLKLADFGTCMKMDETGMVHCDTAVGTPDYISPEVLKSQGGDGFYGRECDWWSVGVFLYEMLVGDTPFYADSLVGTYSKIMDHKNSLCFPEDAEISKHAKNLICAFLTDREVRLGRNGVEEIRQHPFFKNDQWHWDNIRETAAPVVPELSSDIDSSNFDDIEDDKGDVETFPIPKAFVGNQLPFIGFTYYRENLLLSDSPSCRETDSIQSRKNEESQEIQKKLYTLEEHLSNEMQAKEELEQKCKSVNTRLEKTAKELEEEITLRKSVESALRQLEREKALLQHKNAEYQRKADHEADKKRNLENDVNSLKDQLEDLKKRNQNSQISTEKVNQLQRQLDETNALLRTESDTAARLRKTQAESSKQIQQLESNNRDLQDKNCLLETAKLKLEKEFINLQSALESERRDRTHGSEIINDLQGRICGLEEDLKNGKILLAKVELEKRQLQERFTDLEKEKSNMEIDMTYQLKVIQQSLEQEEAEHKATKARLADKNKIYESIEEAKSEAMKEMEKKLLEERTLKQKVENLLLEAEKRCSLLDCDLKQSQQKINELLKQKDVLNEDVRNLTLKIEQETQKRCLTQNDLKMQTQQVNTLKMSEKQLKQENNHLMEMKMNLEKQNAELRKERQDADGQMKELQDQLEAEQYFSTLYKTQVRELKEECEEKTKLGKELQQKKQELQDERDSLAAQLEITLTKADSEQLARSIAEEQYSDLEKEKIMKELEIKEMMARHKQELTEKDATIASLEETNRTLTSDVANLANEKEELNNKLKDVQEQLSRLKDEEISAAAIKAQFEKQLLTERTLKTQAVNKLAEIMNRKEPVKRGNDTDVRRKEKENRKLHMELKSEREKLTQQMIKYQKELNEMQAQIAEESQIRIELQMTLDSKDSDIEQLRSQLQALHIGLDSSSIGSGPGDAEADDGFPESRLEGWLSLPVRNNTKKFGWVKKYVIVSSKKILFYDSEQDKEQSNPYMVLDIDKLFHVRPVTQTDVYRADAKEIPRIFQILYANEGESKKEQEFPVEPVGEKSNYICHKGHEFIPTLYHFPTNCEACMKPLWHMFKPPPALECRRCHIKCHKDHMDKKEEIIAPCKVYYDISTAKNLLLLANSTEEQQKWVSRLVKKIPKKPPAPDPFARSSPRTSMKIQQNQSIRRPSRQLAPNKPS
Conditions: not given
(Time-resolved FRET reads energy transfer from a long-lived donor to a nearby acceptor.)
`COc1ccc2[nH]c3c4[nH]c5ccc(O)cc5c4c4c(c3c2c1)CNC4=O`: the half-inhibitory concentration (IC50) is 120 nM.

`COc1ccc2[nH]c3c4[nH]c5ccccc5c4c4c(c3c2c1)CNC4=O` registered a 50% inhibitory concentration (IC50) above 500 nM.

As for `Cc1ccc2[nH]c3c4[nH]c5ccccc5c4c4c(c3c2c1)C(=O)NC4`, the IC50 was 550 nM.

In the case of `O=C1NCc2c1c1c3ccc(O)cc3[nH]c1c1[nH]c3ccccc3c21`, it took 23 nM to reach half-maximal inhibition (IC50).

The compound `CO[C@@H]1[C@H](N(C)C(C)=O)C[C@H]2O[C@]1(C)n1c3ccccc3c3c4c(c5c6ccccc6n2c5c31)C(=O)NC4` gave a half-maximal inhibitory concentration (IC50) of 570 nM.

In the case of `CN[C@]1(C(=O)OC)C[C@H]2O[C@]1(C)n1c3ccccc3c3c4c(c5c6ccccc6n2c5c31)C(=O)NC4`, the half-maximal inhibitory concentration (IC50) is above 500 nM.

Compound `C[C@]12O[C@H](C[C@]1(O)C(=O)O)n1c3ccccc3c3c4c(c5c6ccccc6n2c5c31)C(=O)NC4=O` showed an IC50 of 300 nM.

`CC(C)(C)c1ccc2[nH]c3c4[nH]c5ccccc5c4c4c(c3c2c1)C(=O)NC4=O` displayed a half-maximal inhibitory concentration (IC50) above 500 nM.

Consider `CN[C@@H]1C[C@H]2O[C@@](C)([C@@H]1OC)n1c3ccccc3c3c4c(c5c6ccccc6n2c5c31)C(=O)NC4=O` (stereo in doubt; 15), for which inhibition was half-maximal at 20 nM (IC50).

The compound `O=C1NC(=O)c2c1c1c3ccccc3[nH]c1c1[nH]c3ccccc3c21` [STAUROSPORINE AGLYCON] came in with a 50% inhibitory concentration (IC50) above 500 nM.

`CO[C@@H]1[C@H](NC(C)=O)C[C@H]2O[C@]1(C)n1c3ccccc3c3c4c(c5c6ccccc6n2c5c31)C(=O)NC4` returned a concentration for half-maximal inhibition (IC50) of 340 nM.

`C[C@]12O[C@H](C[C@@H](N)[C@H]1O)n1c3ccccc3c3c4c(c5c6ccccc6n2c5c31)CNC4=O` displayed an IC50 of 35 nM.

The compound `COc1cccc2[nH]c3c4[nH]c5ccccc5c4c4c(c3c12)C(=O)NC4=O` came in with an IC50 above 500 nM.

`CC(=O)N[C@H]1C[C@H](n2c3ccccc3c3c4c(c5c6ccccc6[nH]c5c32)CNC4=O)O[C@@H](C)[C@@H]1O` came in with an IC50 of 210 nM.

`CO[C@@H]1[C@H](O)[C@H](O)[C@H](C)O[C@H]1n1c2ccc(O)cc2c2c3c(c4c5ccccc5[nH]c4c21)CNC3=O` came in with an IC50 above 500 nM.

For `COC1NC(=O)c2c1c1c3ccccc3[nH]c1c1[nH]c3ccccc3c21` (stereo unspecified), the half-maximal inhibitory concentration (IC50) is above 500 nM.

Regarding `CO[C@H]1NC(=O)c2c1c1c3ccccc3[nH]c1c1c2c2ccccc2n1[C@@H]1O[C@@H](C)[C@H](O)[C@@H](O)[C@H]1O`, the IC50 was above 500 nM.

In turn, `CN[C@@H]1C[C@H]2O[C@@](C)([C@@H]1OC)n1c3ccccc3c3c4c(c5c6ccccc6n2c5c31)C(=O)NC4=O` (stereo in doubt; 14) yielded a 50% inhibitory concentration (IC50) of 310 nM.

Tested on in the next series: not listed separately
The series can be described thus: Toxicity in BALB/c nude mouse xenografted with human MDA-MB-231 cells harboring Luc-mcherry assessed as reduction in body weight at 15 mg/kg, iv administered once a day for 45 days. In kind it is organism-based. As to conditions: in vivo, 1080 h, time 45 day.
Turning to `C[C@@H](N)[C@H]1CC[C@H](C(=O)Nc2ccncc2)CC1` [Y-27632], the Activity entry is “Non-Toxic”.

Another series concerns MDA-MB-231. The series can be described thus: Antiproliferative activity against human MDA-MB-231 cells assessed as suppression of cell growth incubated for 72 hrs by SRB assay. It is filed as functional, cell-based. The settings on record: MDA-MB-231, 72 h. On the technique in general: Sulforhodamine B stains cellular protein and so reports cell mass.
On to `COc1cccc2c1C(=O)c1c(O)c3c(c(O)c1C2=O)C[C@@](O)(C(=O)CO)C[C@@H]3O[C@H]1C[C@H](N)[C@H](O)[C@H](C)O1` [DOXORUBICIN HYDROCHLORIDE], for which the IC50 was 1010 nM.

The next series has as its system SK-OV-3. The series can be described thus: Antiproliferative activity against human SK-OV-3 cells assessed as suppression of cell growth incubated for 72 hrs by SRB assay. It is filed as functional, cell-based. As to conditions: SK-OV-3, 72 h.
As to `COc1cccc2c1C(=O)c1c(O)c3c(c(O)c1C2=O)C[C@@](O)(C(=O)CO)C[C@@H]3O[C@H]1C[C@H](N)[C@H](O)[C@H](C)O1` [DOXORUBICIN HYDROCHLORIDE], the 50% inhibitory concentration (IC50) was 480 nM.
